# From patent US20090325923A1, “NEW METHOD FOR THE TREATMENT OF INFLAMMATORY DISEASES” (TOPOTARGET SWITZERLAND SA, priority 2006, published 2009)
# Assays:
# Assay type in all cases: cell-based
# Human PBMC = assay: MTT cell viability assay in PBMC; settings: overnight increasing doses of FK866, LPS 6 h
# Protocol: (A) Human PBMC were isolated and cultured overnight with increasing doses of FK866, and then stimulated with LPS for 6 h. At the end of the culture, cell viability was assessed using the MTT (3-(4,5-Dimethylthiazol-2-yl)-2,5-diphenyltetrazolium bromide) assay.
# This example illustrates that the inhibition of proinflammatory cytokine secretion induced by lowering intracellular NAD levels is not due to apoptosis induction. Human PBMC were isolated and cultured overnight with increasing doses of FK866, and then stimulated with LPS for 6 h. At the end of the culture, cell viability was assessed using the MTT (3-(4,5-Dimethylthiazol-2-yl)-2,5-diphenyltetrazolium bromide) assay.
# [1] = test system: human monocyte-derived dendritic cells; assay: Annexin-V and propidium iodide survival assay in dendritic cells; settings: overnight increasing doses of FK866, LPS 6 h, vs untreated cells
# Protocol: (B) Human monocyte-derived dendritic cells were isolated and cultured overnight with increasing doses of FK866, and then stimulated with LPS for 6 h. At the end of the culture, the survival of cells was measured by Annexin-V and propidium iodide staining.
# In another experiment, human monocyte-derived dendritic cells were isolated and cultured overnight with increasing doses of FK866, and then stimulated with LPS for 6 h.
# [2] = test system: human monocyte-derived dendritic cells; assay: LPS-stimulated cytokine secretion by ELISA in dendritic cells
# Protocol: Human monocytic cell line THP-1, human peripheral blood mononuclear cells (PBMC), human monocyte-derived dendritic cells, or mouse peritoneal macrophages were isolated and cultured overnight with increasing doses of FK866, and then stimulated with LPS for 6 h. The culture supernatants were tested for TNF and IL-6 content by ELISA
# Human dendritic cells (mean and SD from 5 different donors) were incubated with 20 nM FK866 before stimulation with LPS or LPS+IFNγ. Pro-inflammatory cytokine levels in the supernatant were measured by ELISA after 16 h of culture.
# This example describes the inhibition of pro-inflammatory cytokines production by the competitive small molecular weight compound inhibitor of NMPRT, ((E)-N-[4-(1-benzoylpiperidin-4-yl)butyl]-3-(pyridin-3-yl)acrylamide, designated FK866). Human monocytic cell line THP-1, human peripheral blood mononuclear cells (PBMC), human monocyte-derived dendritic cells, or mouse peritoneal macrophages were isolated and cultured overnight with increasing doses of FK866, and then stimulated with LPS for 6 h. The culture supernatants were tested for TNF and IL-6 content by ELISA.
# This example describes the inhibition of other pro-inflammatory cytokine production, in addition to TNFα, IL-1β and IL-6, by FK866. Human dendritic cells from 5 different donors were cultured with FK866 before stimulation with LPS or LPS+IFNγ. The culture supernatants were tested for TNFα, IL-12 (p40 and p70), and IL-23 content by ELISA.
# [3] = human dendritic cells from 5 donors, 20 nM FK866, LPS or LPS+IFNγ, 16 h
structure (smiles),measurement,setting,value
"O=C(/C=C/c1cccnc1)NCCCCC1CCN(C(=O)c2ccccc2)CC1 [FK866, (E)-N-[4-(1-benzoylpiperidin-4-yl)butyl]-3-(pyridine-3-yl)-acrylamide]",cell viability (MTT),Human PBMC,not affected
same,survival of cells (Annexin-V and propidium iodide staining),[1],no difference in survival
same,IL-12 (p40 and p70) production,[2]; [3],inhibited
same,IL-23 production,[2]; [3],inhibited
same,TNFα production,[2]; [3],inhibited
same,cytokine secretion (TNF and IL-6),"[2]; human monocyte-derived dendritic cells, overnight increasing doses of FK866, LPS 6 h",inhibited cytokine secretion in a dose-dependent fashion
